Reference: patent US20040018582A1, “Genes and gene products that confer susceptibility to vancomycin derivative antibiotics and methods and assays for identifying bifunctional glycopeptide antibiotics using same” (priority 2001, published 2004)
Converted amounts (≈) assume the structure as drawn.

How the values were obtained:
Format in all cases: cell-based, Escherichia coli
[1] = system: mutant strains BE101, BE102, BE103 compared to wild-type BE100; assay: Comparison of antibiotic effectiveness in mutant (yfgL) strains versus wild-type strain; conditions: for resistance or sensitivity of the mutants: mutants vs parent strain BE100, by MIC
Description: The present inventions are directed to methods of identifying a compound having transglycosylase inhibitory activity. The method includes contacting the compound with cells having the wild type yfgL gene and then measuring the antibiotic effectiveness and contacting the compound with cells having the mutant yfgL gene and measuring the antibiotic effectiveness the compound.
(§1) MICs were determined against strains grown in LB medium in a standard microdilution format.
Some antibiotics, for example the β-lactams, show a decrease in their bactericidal effectiveness against slow-growing cells. E. Tuomanen et al., J. Gen. Microbiol. 132, 1297 (1986). […] R. Kerns et al., J. Am. Chem. Soc. 122, 12608 (2000).
Examples of transpeptidase inhibitors include, but are not limited to, ampicillin, penicillin or cefoxitin (p-lactams). Compounds that inhibit cytoplasmic steps of peptidoglycan synthesis include, but are not limited to, fosfomycin and cycloserine.

mutant strain BE102 = assay: MIC, standard microdilution in LB medium; conditions: 35° C., 22 hours
Description: (§2) The imp mutation alters the permeability of the outer membrane and confers sensitivity to vancomycin and its carbohydrate derivatives as well as to moenomycin. BE100 is an isolate of BAS849 (MC4100 ΔlamB106 imp 4213). B. A. Sampson et al., Genetics 122, 491(1989).
as §1

mutant strain BE103 = assay: MIC, standard microdilution in LB medium; conditions: 35° C., 22 hours
Description: as §2, §1

mutant strain BE101 [2] = assay: MIC, standard microdilution in LB medium; conditions: 35° C., 22 hours
Description: as §2, §1

[3] = system: wild-type strain BE100 (E. coli imp); assay: MIC, standard microdilution in LB medium; conditions: 35° C., 22 hours
Description: as §2, §1

wild-type BE100 = assay: Time-kill curves at MIC; conditions: wild-type BE100, vancomycin 0.8 μg/ml
Description: (§3) FIGS. 1C and 1D represent time-kill curves of wild-type BE100 (C) and mutant strain BE101 (D) in the presence of antibiotics at their MICs. A standard microdilution assay was performed in LB. Samples were removed and serial dilutions were plated onto antibiotic-free agar after 15, 30, 60, 120 and 240 minutes of exposure to each antibiotic.

mutant strain BE101 [4] = assay: Time-kill curves at MIC; conditions: mutant BE101, vancomycin […]
Description: as §3

| Molecule | resistance or sensitivity of the mutants [1] | minimum inhibitory concentration (MIC) (mutant strain BE102) [µg/mL] | minimum inhibitory concentration (MIC) (mutant strain BE103) [µg/mL] | minimum inhibitory concentration (MIC) (mutant strain BE101 [2]) [µg/mL] | minimum inhibitory concentration (MIC) [3] [µg/mL] | times less active in resistant strains compared to the wild-type strain ([1]; all three resistant strains vs wild-type) | step of peptidoglycan synthesis blocked, found using wild type/mutant yfgL assay [1] | survival on exposure at MIC (wild-type BE100) | survival on exposure at MIC (mutant strain BE101 [4]) |
| --- | --- | --- | --- | --- | --- | --- | --- | --- | --- |
| gentamicin | sensitive |  |  |  |  |  |  |  |  |
| CC[C@H]1OC(=O)[C@H](C)[C@@H](O[C@H]2C[C@@](C)(OC)[C@@H](O)[C@H](C)O2)[C@H](C)[C@@H](O[C@@H]2O[C@H](C)C[C@H](N(C)C)[C@H]2O)[C@](C)(O)C[C@@H](C)C(=O)[C@H](C)[C@@H](O)[C@]1(C)O [erythromycin] | sensitive |  |  |  |  |  |  |  |  |
| CC1(C)S[C@@H]2[C@H](NC(=O)Cc3ccccc3)C(=O)N2[C@H]1C(=O)O [Penicillin G] |  | 1.6 (≈ 4.78 µM) | 3.2 (≈ 9.57 µM) | 3.2 (≈ 9.57 µM) | 3.2 (≈ 9.57 µM) |  |  |  |  |
| Desleucyl chlorobiphenyl vancomycin |  | >125 | >125 | >125 | 25 |  |  |  |  |
| Moenomycin |  | 0.8 | 3.2 | 1.6 | 0.03 | 27-100 times |  |  |  |
| Teicoplanin | resistant | 3 | 4 | 16 | 0.25 |  | block the transglycosylation step of peptidoglycan synthesis |  |  |
| CN[C@H](CC(C)C)C(=O)N[C@H]1C(=O)N[C@@H](CC(N)=O)C(=O)N[C@H]2C(=O)N[C@H]3C(=O)N[C@H](C(=O)N[C@H](C(=O)O)c4cc(O)cc(O)c4-c4cc3ccc4O)[C@H](O)c3ccc(c(Cl)c3)Oc3cc2cc(c3O[C@@H]2O[C@H](CO)[C@@H](O)[C@H](O)[C@H]2O[C@H]2C[C@](C)(N)[C@H](O)[C@H](C)O2)Oc2ccc(cc2Cl)[C@H]1O [Vancomycin] | did not show any resistance | 1.6 (≈ 1.1 µM) | 1.6 (≈ 1.1 µM) | 1.6 (≈ 1.1 µM) | 0.8 (≈ 0.552 µM) |  |  | prevented growth of all the strains but did not kill them | prevented growth of all the strains but did not kill them |
